This note sets out measurements from article PMC10354055, “An optimized Nurr1 agonist provides disease-modifying effects in Parkinson’s disease models” (Nature Communications, 2023).

Values joined by “and” are separate entries in the source; they are usually repeats but may differ in a detail not shown here. Equal entries are not always repeated.

The target of the assay is T1, Nurr1-LBD (Mus musculus, UniProt Q06219).
T1 construct: transfected with pCMV-fNurr1, pGAL-Nurr1(LBD), pGAL-Nor1(LBD) or pGAL-Nur77(LBD) and reporter construct; expressed in transfected cells; host or cells: SK-N-BE(2)C (human neuroblastoma), N27-A (rat dopaminergic), MN9D (murine dopaminergic)
T1 sequence (Q06219 360-595 limits assumed): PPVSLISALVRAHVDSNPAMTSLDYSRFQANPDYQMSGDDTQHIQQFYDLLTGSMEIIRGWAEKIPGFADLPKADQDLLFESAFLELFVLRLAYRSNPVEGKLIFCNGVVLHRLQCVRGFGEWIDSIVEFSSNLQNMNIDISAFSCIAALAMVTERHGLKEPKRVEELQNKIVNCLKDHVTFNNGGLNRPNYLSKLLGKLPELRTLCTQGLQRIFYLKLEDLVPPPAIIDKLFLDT
Kind of assay: Luciferase reporter assay, Nurr1-LBD, SK-N-BE(2)C cells. The assay is classed as cell-based. The settings on record: for Maximum fold activity / EC50: Nurr1 activation; for Maximum fold activity: Supplementary Table 1; for Nurr1 activation (in words): Nurr1 reporter assays. The source says:
Nurr1 transactivity was normalized to β-galactosidase activity.

Where [1] appears, read: Supplementary Table 1, values in µM.
The mark [2] stands for this setting: Supplementary Table 1, values given in nM.

In the case of `Cc1cc(N2CCSCC2)nc(NC2CCCC(Nc3ccnc4cc(Cl)ccc34)C2)n1` (stereo not drawn) [4A7C-606], the Maximum fold activity turned out to be 5.72 ± 0.16 fold. Also, under setting [1], a half-maximal effect (EC50) was put at 1.54 ± 0.36 µM.
As to `Cc1cc(N(CCNc2ccnc3cc(Cl)ccc23)Cc2cccs2)nc(Cl)n1` [4A7C-502], the Maximum fold activity turned out to be 4.99 ± 0.86 fold. Under setting [2], this molecule registered a 50% effective concentration (EC50) of 0.00051 ± 6e-05 µM.
For `Cc1cc(N2CCN(C)CC2)nc(N(CCNc2ccnc3cc(Cl)ccc23)Cc2cccs2)n1` [4A7C-504], the Maximum fold activity was 4.07 ± 0.53 fold. Under setting [2], this molecule yielded a concentration giving a half-maximal response (EC50) of 0.431 ± 0.0151 µM.
On the same counts, the results for `Clc1ccc2c(NCCN3CCN(c4ccnc(N5CCSCC5)n4)CC3)ccnc2c1` [4A7C-204] are 4.46 ± 0.67 fold and 0.0337 ± 0.00034 µM.
For `Cc1cc(N2CCOCC2)nc(N(CCNc2ccnc3cc(Cl)ccc23)Cc2cccs2)n1` [4A7C-503], the Maximum fold activity is recorded as 2.25 ± 0.26 fold. The concentration giving a half-maximal response (EC50) under setting [2] was 0.00107 ± 0.00012 µM.
On to `Cc1cc(N2CCCCC2)nc(NC2CCCC(Nc3ccnc4cc(Cl)ccc34)C2)n1` (stereo not drawn) [4A7C-609], for which the Maximum fold activity stood at 4.83 ± 0.51 fold. Also, under setting [1], the midpoint of the response, the EC50, lay at 1.19 ± 0.61 µM.
`CCN1CCN(c2cc(NCCNc3ccnc4cc(Cl)ccc34)nc(N3CCN(CC)CC3)n2)CC1` [4A7C-303]: the Maximum fold activity is 9.50 ± 0.22 fold and the “Nurr1 activation (in words)” value was “good activity”. This molecule also yielded a concentration giving a half-maximal response (EC50) under setting [2] of 0.0085 ± 0.0186 µM.
For `Cc1cc(N2CCN(c3ccccc3)CC2)nc(NC2CCCC(Nc3ccnc4cc(Cl)ccc34)C2)n1` (stereo not drawn) [4A7C-608], the Maximum fold activity was determined as 6.31 ± 0.82 fold. In addition, the EC50 under setting [1] was found to be 1.14 ± 0.13 µM.
For `CCN1CCN(c2nccc(N3CCN(CCNc4ccnc5cc(Cl)ccc45)CC3)n2)CC1` [4A7C-206], in that order: 10.71 ± 0.44 fold and 10 ± 0.76 µM.
In the case of `Cc1cc(NC2CCCC(Nc3ccnc4cc(Cl)ccc34)C2)nc(N2CCCCC2)n1` (stereo not drawn) [4A7C-603], the Maximum fold activity was 6.84 ± 0.52 fold. The half-maximal effective concentration (EC50) under setting [1] was determined as 1.22 ± 0.02 µM.
For `CCN1CCN(c2nc(NCCCCNc3ccnc4cc(Cl)ccc34)c3ccccc3n2)CC1` [4A7C-401], the Maximum fold activity is recorded as 3.01 ± 0.13 fold. The molecule also had a concentration giving a half-maximal response (EC50) under setting [2] of 0.00262 ± 0.00096 µM.
Regarding `CCN1CCN(c2cc(Cl)nc(NCCNc3ccnc4cc(Cl)ccc34)n2)CC1` [4A7C-104], the Maximum fold activity is 2.63 ± 0.58 fold and the “Nurr1 activation (in words)” value is given as “better Nurr1 EC50 than 4A7C-103”. Also, the EC50 under setting [2] amounted to 0.316 ± 0.0398 µM.
Regarding `Cc1cc(N2CCN(CCNc3ccnc4cc(Cl)ccc34)CC2)nc(N2CCCC2)n1` [4A7C-202], the Maximum fold activity was 3.78 ± 0.25 fold. For the same molecule, under setting [2], the EC50 is 0.00128 ± 0.00063 µM.
As to `CCN1CCN(c2nc(C)cc(NCCCNc3ccnc4cc(Cl)ccc34)n2)CC1` [4A7C-102], the Maximum fold activity was 3.68 ± 0.04 fold and 3.68 fold. For the same molecule, the concentration giving a half-maximal response (EC50) under setting [2] stood at 0.143 µM.
For `Clc1ccc2c(NCCN3CCN(c4nccc(-n5ccnc5)n4)CC3)ccnc2c1` [4A7C-509], the Maximum fold activity is 3.43 ± 0.42 fold. Moreover, a half-maximal effect under setting [2] (EC50) was put at 0.113 ± 0.0192 µM.
As to `Cc1cc(N(CCNc2ccnc3cc(Cl)ccc23)Cc2ccc3c(c2)OCO3)nc(N2CCN(C)CC2)n1` [4A7C-501], the Maximum fold activity is recorded as 10.51 ± 0.85 fold. Under setting [1], this molecule had a concentration giving a half-maximal response (EC50) of 3.39 ± 0.26 µM.
As for `CCN1CCN(c2cc(N3CCN(C)CC3)nc(NCCNc3ccnc4cc(Cl)ccc34)n2)CC1` [4A7C-306], the Maximum fold activity is given as 10.01 ± 0.06 fold and the “Nurr1 activation (in words)” value is given as “good Nurr1 activities”. Also, the response under setting [2] was half-maximal at 0.0255 ± 0.0422 µM (EC50).
`CCN1CCN(c2cc(Cl)nc(NCCCNc3ccnc4cc(Cl)ccc34)n2)CC1` [4A7C-103]: the Maximum fold activity was found to be 3.52 ± 0.19 fold and the “Nurr1 activation (in words)” value is on record as “diminished Nurr1 activity”. Under setting [2], it took 0.6345 ± 0.00137 µM to reach a half-maximal effect (EC50).
As to `Cc1cc(N(CCNc2ccnc3cc(Cl)ccc23)Cc2cccs2)nc(N2CCCCC2)n1` [4A7C-505], the Maximum fold activity was 3.65 ± 0.31 fold. Besides, the EC50 under setting [2] is 0.00214 ± 0.00045 µM.
`Cc1cc(N2CCN(C)CC2)nc(NC2CCCC(Nc3ccnc4cc(Cl)ccc34)C2)n1` (stereo not drawn) [4A7C-607]: the Maximum fold activity is on record as 4.50 ± 1.59 fold. For the same molecule, a half-maximal effect under setting [1] (EC50) was put at 2.23 ± 0.4 µM.
For the molecule `CCN1CCN(c2cc(C)nc(N(CCNc3ccnc4cc(Cl)ccc34)Cc3cccs3)n2)CC1` [4A7C-507], the Maximum fold activity was found to be 3.24 ± 0.40 fold. The molecule further registered an EC50 under setting [2] of 0.0949 ± 0.00166 µM.
For `Cc1cc(NC2CCCC(Nc3ccnc4cc(Cl)ccc34)C2)nc(Cl)n1` (stereo not drawn) [4A7C-601], in that order: 3.81 ± 0.17 fold and 0.11 ± 0.0271 µM.
On the same counts, the results for `Cc1cc(N(CCNc2ccnc3cc(Cl)ccc23)Cc2cccs2)nc(N2CCOCC2)n1` [4A7C-506] are 4.49 ± 0.43 fold and 0.00983 ± 0.00029 µM.
As to `Cc1cc(NC2CCCC(Nc3ccnc4cc(Cl)ccc34)C2)nc(N2CCOCC2)n1` (stereo not drawn) [4A7C-605], the Maximum fold activity came to 5.71 ± 0.81 fold. Under setting [1], the EC50 stood at 1.08 ± 0.37 µM.
Consider `CCN1CCN(c2cc(N3CCOCC3)nc(NCCNc3ccnc4cc(Cl)ccc34)n2)CC1` [4A7C-305], for which the Maximum fold activity is on record as 7.60 ± 0.08 fold and the “Nurr1 activation (in words)” value is reported as “good Nurr1 activities”. This molecule also gave an EC50 under setting [1] of 1.04 µM.
Regarding `CCN1CCN(c2cc(N3CCCCC3)nc(NCCNc3ccnc4cc(Cl)ccc34)n2)CC1` [4A7C-304], the Maximum fold activity is 2.16 ± 0.03 fold and the “Nurr1 activation (in words)” value is “good Nurr1 activities”. It took 0.00967 ± 0.00787 µM to reach a half-maximal effect under setting [2] (EC50).
`Cc1cc(N2CCCC2)nc(NC2CCCC(Nc3ccnc4cc(Cl)ccc34)C2)n1` (stereo not drawn) [4A7C-604]: the Maximum fold activity is 4.24 ± 0.45 fold. The molecule further yielded an EC50 under setting [1] of 1.03 ± 0.42 µM.
On the same counts, the results for `Cc1cc(NC2CCCC(Nc3ccnc4cc(Cl)ccc34)C2)nc(N2CCN(c3ccccc3)CC2)n1` (stereo not drawn) [4A7C-602] are 3.44 ± 0.28 fold and 3.86 ± 0.26 µM.
For the molecule `Clc1ccc2c(NCCN3CCN(c4ccnc(Cl)n4)CC3)ccnc2c1` [4A7C-203], the Maximum fold activity is reported as 4.22 ± 0.16 fold. Further, under setting [2], the half-maximal effective concentration (EC50) was found to be 0.017 ± 0.00497 µM.
Take `Cc1cc(N2CCN(CCNc3ccnc4cc(Cl)ccc34)CC2)nc(N2CCN(C)CC2)n1` [4A7C-201]: the Maximum fold activity came to 4.78 ± 0.31 fold. The same molecule displayed a half-maximal effective concentration (EC50) under setting [2] of 0.0146 ± 0.00138 µM.
